Counter-ions that a name gives are not always drawn.
CCC(=O)N1CC2CC(C1)N2C/C=C(\CC)c1ccccc1 (as salt: hydrochloride)
melting point: 160 to 163 °C

CCC(=O)N1CC2CC(C1)N2C/C=C(\C)c1ccccc1 (as salt: hydrochloride)
melting point: 123 to 125 °C

Source: patent US20070225492A1 (priority 2004, published 2007)
